In paper PMC4949533, “Optimization of Inhibitors of Mycobacterium tuberculosis Pantothenate Synthetase Based on Group Efficiency Analysis” (Chemmedchem, 2015) one finds IC50 and Kd data, which are given here for eleven compounds.

Molecules are shown by their SMILES.

In the first assay the target is T1, Mycobacterium tuberculosis pantothenate synthetase (Mycobacterium tuberculosis, UniProt P9WIL4).
T1 construct: gene panC
T1 sequence (P9WIL4 2-309 limits assumed): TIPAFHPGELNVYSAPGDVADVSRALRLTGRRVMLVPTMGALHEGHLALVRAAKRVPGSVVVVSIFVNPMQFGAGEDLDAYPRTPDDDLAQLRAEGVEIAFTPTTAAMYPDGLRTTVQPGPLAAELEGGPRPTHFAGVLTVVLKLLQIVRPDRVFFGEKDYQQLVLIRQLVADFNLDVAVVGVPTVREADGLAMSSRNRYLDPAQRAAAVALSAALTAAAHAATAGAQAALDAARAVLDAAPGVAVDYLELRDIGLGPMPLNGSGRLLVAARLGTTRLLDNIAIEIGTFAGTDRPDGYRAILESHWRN
In words: enzyme inhibition assay. The class given is biochemical.
Conditions: not given
As usually defined, the IC50 is the concentration needed to halve the response being measured. Read a high IC50 as weaker potency. Consider `COc1ccc2c(c1)cc(C(=O)NS(=O)(=O)c1ccc(C(F)(F)F)cc1)n2CC(=O)O` [compound 11, 11], for which the half-maximal inhibitory concentration (IC50) is 5700 nM. As for `COc1ccc2c(c1)cc(C(=O)NS(=O)(=O)Cc1ccc(C(F)(F)F)cc1)n2CC(=O)O` [compound 20, 20], half-maximal inhibition (IC50) required 253 nM.

The target of the next assay is T1, Mycobacterium tuberculosis pantothenate synthetase. In words: isothermal titration calorimetry (ITC). The assay is classed as binding. To be noted: active site; lead compound of the group's earlier work; read-out: K D [μM]^[a]; cited from earlier work. An excerpt:
isothermal titration calorimetry (ITC) on Mycobacterium tuberculosis pantothenate synthetase
(In general: In ITC the heat of successive injections is recorded.)
In the case of `COc1ccc2c(c1)cc(C(=O)NS(=O)(=O)c1ccc(C)cn1)n2CC(=O)O` [compound 5, 5], the Kd is 1.5 µM.

The same assay, now with this note: read-out: K D [μM]^[a].
Consider `COc1ccc2c(c1)cc(C(=O)NS(=O)(=O)c1ccc(C)cc1)n2CC(=O)O` [compound 10, 10], for which the Kd worked out at 0.34 µM.

`COc1ccc2c(c1)cc(C(=O)NS(=O)(=O)c1ccc(C(F)(F)F)cc1)n2CC(=O)O` [compound 11, 11]: the Kd amounted to 0.2 µM. With `COc1ccc2c(c1)cc(C(=O)NS(=O)(=O)c1ccc(C(C)(C)C)cc1)n2CC(=O)O` [compound 12, 12], the Kd came out at 0.46 µM.

Regarding `COc1ccc2c(c1)cc(C(=O)NS(=O)(=O)c1ccc3ccccc3c1)n2CC(=O)O` [compound 13, 13], the Kd is 0.61 µM. Still for that read-out and setting: as for `COc1ccc2c(c1)cc(C(=O)NS(=O)(=O)c1ccc(C(F)(F)F)cc1[N+](=O)[O-])n2CC(=O)O` [compound 14, 14], the figure is 0.8 µM; as for `COc1ccc2c(c1)cc(C(=O)NS(=O)(=O)N1CCOCC1)n2CC(=O)O` [compound 15, 15], 3.5 µM; as for `COc1ccc2c(c1)cc(C(=O)NS(=O)(=O)N1CCN(C(C)=O)CC1)n2CC(=O)O` [compound 16, 16], 17 µM.

Regarding `COc1ccc2c(c1)cc(C(=O)NS(=O)(=O)c1ccc(NC(C)=O)cc1)n2CC(=O)O` [compound 18, 18], the Kd turned out to be 6 µM. Take `COc1ccc(S(=O)(=O)NC(=O)c2cc3cc(OC)ccc3n2CC(=O)O)cc1` [compound 19, 19]: the Kd was determined as 2 µM.
